Source: patent US6737383B1, “Herbicidal oxadiazolidines” (priority 1999, dated 2004)

Key:
wheat = assay: Test B pre/postemergence wheat; format: in vivo, Triticum aestivum
Outline: (§1)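 Response is a visual 0-to-10 score relative to untreated plants, where 0 means no effect and 10 means complete control, taken twelve to sixteen days after application. Treatments went onto soil at planting and onto foliage of 1- to 4-leaf plants, using a surfactant-containing non-phytotoxic solvent.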

velvetleaf = assay: Test B pre/postemergence velvetleaf; format: in vivo, Abutilon theophrasti
Outline: as §1

purple nutsedge = assay: Test B pre/postemergence purple nutsedge; format: in vivo, Cyperus rotundus
Outline: as §1

surinam grass = assay: Test B pre/postemergence surinam grass; format: in vivo, Brachiaria decumbens
Outline: as §1

pigweed = assay: Test B pre/postemergence pigweed; format: in vivo, Amaranthus retroflexus
Outline: as §1

crabgrass = assay: Test B pre/postemergence crabgrass; format: in vivo, Digitaria sanguinalis
Outline: as §1

rape = assay: Test B pre/postemergence rape; format: in vivo, Brassica napus
Outline: as §1

sugar beet = assay: Test B pre/postemergence sugar beet; format: in vivo, Beta vulgaris
Outline: as §1

bedstraw = assay: Test B pre/postemergence bedstraw; format: in vivo, Galium aparine
Outline: as §1

morningglory = assay: Test B pre/postemergence morningglory; format: in vivo, Ipomoea hederacea
Outline: as §1

blackgrass = assay: Test B pre/postemergence blackgrass; format: in vivo, Alopecurus myosuroides
Outline: as §1

cocklebur = assay: Test B pre/postemergence cocklebur; format: in vivo, Xanthium strumarium
Outline: as §1

wild oat = assay: Test B pre/postemergence wild oat; format: in vivo, Avena fatua
Outline: as §1

corn = assay: Test B pre/postemergence corn; format: in vivo, Zea mays
Outline: as §1

soybean = assay: Test B pre/postemergence soybean; format: in vivo, Glycine max
Outline: as §1

giant foxtail = assay: Test B pre/postemergence giant foxtail; format: in vivo, Setaria faberii
Outline: as §1

[1] = Postemergence, Rate 62 g/ha, scale 0 to 10, 0 is no effect, 10 is complete control
[2] = Postemergence, Rate 125 g/ha, scale of 0 to 10 where 0 is no effect and 10 is complete control
[3] = Preemergence, Rate 125 g/ha, scale of 0 to 10 where 0 is no effect and 10 is complete control
[4] = Preemergence, Rate 250 g/ha, scale 0 (no effect) to 10 (complete control)
[5] = Rate 62 g/ha, Preemergence, scale 0 to 10
[6] = Rate 500 g/ha, Postemergence, scale 0 to 10, 0 is no effect, 10 is complete control
[7] = Rate 250 g/ha, Postemergence, scale 0 to 10, 0 is no effect, 10 is complete control
[8] = Rate 500 g/ha, Preemergence, scale 0 to 10 (0 no effect, 10 complete control)

For `CC(C)N(C(=O)n1oc(=O)n(CC(F)F)c1=O)c1ccccc1` [Compound 746], the “Plant response rating, Wheat” value (wheat; [1]) was 0, the “Wheat plant response rating” value (wheat; [2]) was 4 and the “Plant response rating, Wheat” value (wheat; [3]) was 7. The “Wheat plant response rating” value (wheat; [4]) was 8, the “Wheat plant response rating” value (wheat; [5]) was 6 and the “Wheat plant response rating” value (wheat; [6]) was 6. The “Plant response rating, Velvetleaf” value (velvetleaf; [1]) was 2, the “Velvetleaf plant response rating” value (velvetleaf; [2]) was 6 and the “Plant response rating, Velvetleaf” value (velvetleaf; [3]) was 6. For the same compound, the “Velvetleaf plant response rating” value (velvetleaf; [4]) was 7, the “Velvetleaf plant response rating” value (velvetleaf; [5]) was 4 and the “Velvetleaf plant response rating” value (velvetleaf; [7]) was 6. The “Velvetleaf plant response rating” value (velvetleaf; [6]) was 7, the “Velvetleaf plant response rating” value (velvetleaf; [8]) was 8 and the “Plant response rating, Nutsedge” value (purple nutsedge; [1]) was 0. For the same compound, the “Nutsedge plant response rating” value (purple nutsedge; [2]) was 0, the “Plant response rating, Nutsedge” value (purple nutsedge; [3]) was 3 and the “Nutsedge plant response rating” value (purple nutsedge; [5]) was 0. The “Nutsedge plant response rating” value (purple nutsedge; [7]) was 2, the “Nutsedge plant response rating” value (purple nutsedge; [6]) was 4 and the “Nutsedge plant response rating” value (purple nutsedge; [8]) was 5. The “Plant response rating, B. signalgrass” value (surinam grass; [1]) was 3, the “B. signalgrass plant response rating” value (surinam grass; [2]) was 4 and the “B. signalgrass plant response rating” value (surinam grass; Preemergence, Rate 62 g/ha, scale of 0 to 10 where 0 is no effect and 10 is complete control) was 7. For the same compound, the “Plant response rating, B. signalgrass” value (surinam grass; [3]) was 9, the “B. signalgrass plant response rating” value (surinam grass; [4]) was 9 and the “B. signalgrass plant response rating” value (surinam grass; [7]) was 6. For the same compound, the “B. signalgrass plant response rating” value (surinam grass; [6]) was 8, the “Plant response rating, Redroot pigweed” value (pigweed; [1]) was 6 and the “Redroot pigweed plant response rating” value (pigweed; [2]) was 5. For the same compound, the “Plant response rating, Redroot pigweed” value (pigweed; [3]) was 10, the “Redroot pigweed plant response rating” value (pigweed; [4]) was 10 and the “Redroot pigweed plant response rating” value (pigweed; [5]) was 10. The “Redroot pigweed plant response rating” value (pigweed; [7]) was 8, the “Redroot pigweed plant response rating” value (pigweed; [6]) was 9 and the “Plant response rating, Crabgrass” value (crabgrass; [1]) was 7. For the same compound, the “Crabgrass plant response rating” value (crabgrass; [2]) was 9, the “Plant response rating, Crabgrass” value (crabgrass; [3]) was 10 and the “Crabgrass plant response rating” value (crabgrass; [4]) was 10. The “Crabgrass plant response rating” value (crabgrass; [5]) was 9, the “Crabgrass plant response rating” value (crabgrass; [7]) was 9 and the “Crabgrass plant response rating” value (crabgrass; [6]) was 10. For the same compound, the “Crabgrass plant response rating” value (crabgrass; [8]) was 10, the “Plant response rating, Rape” value (rape; [1]) was 4 and the “Rape plant response rating” value (rape; [2]) was 4. The “Plant response rating, Rape” value (rape; [3]) was 9, the “Rape plant response rating” value (rape; [4]) was 9 and the “Rape plant response rating” value (rape; [5]) was 2. For the same compound, the “Rape plant response rating” value (rape; [7]) was 7, the “Rape plant response rating” value (rape; [6]) was 7 and the “Plant response rating, Sugarbeets” value (sugar beet; [1]) was 0. For the same compound, the “Sugarbeets plant response rating” value (sugar beet; [2]) was 0, the “Plant response rating, Sugarbeets” value (sugar beet; [3]) was 7 and the “Sugarbeets plant response rating” value (sugar beet; [4]) was 7. For the same compound, the “Sugarbeets plant response rating” value (sugar beet; [5]) was 5, the “Sugarbeets plant response rating” value (sugar beet; [7]) was 4 and the “Sugarbeets plant response rating” value (sugar beet; [6]) was 4. For the same compound, the “Bedstraw plant response rating” value (bedstraw; [2]) was 7, the “Bedstraw plant response rating” value (bedstraw; [5]) was 8 and the “Bedstraw plant response rating” value (bedstraw; [7]) was 8. For the same compound, the “Bedstraw plant response rating” value (bedstraw; [6]) was 9, the “Plant response rating, Morningglory” value (morningglory; [1]) was 4 and the “Morningglory plant response rating” value (morningglory; [2]) was 8. For the same compound, the “Plant response rating, Morningglory” value (morningglory; [3]) was 4, the “Morningglory plant response rating” value (morningglory; [4]) was 6 and the “Morningglory plant response rating” value (morningglory; [5]) was 0. For the same compound, the “Morningglory plant response rating” value (morningglory; [7]) was 10, the “Morningglory plant response rating” value (morningglory; [6]) was 10 and the “Morningglory plant response rating” value (morningglory; [8]) was 8. The “Plant response rating, Blackgrass” value (blackgrass; [1]) was 5, the “Blackgrass plant response rating” value (blackgrass; [2]) was 7 and the “Plant response rating, Blackgrass” value (blackgrass; [3]) was 9. For the same compound, the “Blackgrass plant response rating” value (blackgrass; [4]) was 10, the “Blackgrass plant response rating” value (blackgrass; [5]) was 9 and the “Blackgrass plant response rating” value (blackgrass; [7]) was 8. For the same compound, the “Blackgrass plant response rating” value (blackgrass; [6]) was 8, the “Plant response rating, Cocklebur” value (cocklebur; [1]) was 0 and the “Cocklebur plant response rating” value (cocklebur; [2]) was 2. The “Plant response rating, Cocklebur” value (cocklebur; [3]) was 0, the “Cocklebur plant response rating” value (cocklebur; [4]) was 0 and the “Cocklebur plant response rating” value (cocklebur; [7]) was 2. For the same compound, the “Cocklebur plant response rating” value (cocklebur; [6]) was 4, the “Cocklebur plant response rating” value (cocklebur; [8]) was 4 and the “Plant response rating, Wild oats” value (wild oat; [1]) was 0. For the same compound, the “Wild oats plant response rating” value (wild oat; [2]) was 2, the “Plant response rating, Wild oats” value (wild oat; [3]) was 10 and the “Wild oats plant response rating” value (wild oat; [4]) was 10. The “Wild oats plant response rating” value (wild oat; [5]) was 7, the “Wild oats plant response rating” value (wild oat; [7]) was 6 and the “Wild oats plant response rating” value (wild oat; [6]) was 7. For the same compound, the “Plant response rating, Corn” value (corn; [1]) was 0, the “Corn plant response rating” value (corn; [2]) was 0 and the “Plant response rating, Corn” value (corn; [3]) was 3. The “Corn plant response rating” value (corn; [4]) was 3, the “Corn plant response rating” value (corn; [5]) was 0 and the “Corn plant response rating” value (corn; [7]) was 4. The “Corn plant response rating” value (corn; [6]) was 5, the “Corn plant response rating” value (corn; [8]) was 4 and the “Plant response rating, Soybean” value (soybean; [1]) was 2. For the same compound, the “Soybean plant response rating” value (soybean; [2]) was 3, the “Plant response rating, Soybean” value (soybean; [3]) was 0 and the “Soybean plant response rating” value (soybean; [4]) was 5. For the same compound, the “Soybean plant response rating” value (soybean; [5]) was 0, the “Soybean plant response rating” value (soybean; [7]) was 4 and the “Soybean plant response rating” value (soybean; [6]) was 6. For the same compound, the “Soybean plant response rating” value (soybean; [8]) was 5, the “Plant response rating, Giant foxtail” value (giant foxtail; [1]) was 6 and the “Giant foxtail plant response rating” value (giant foxtail; [2]) was 8. The “Plant response rating, Giant foxtail” value (giant foxtail; [3]) was 10, the “Giant foxtail plant response rating” value (giant foxtail; [4]) was 10 and the “Giant foxtail plant response rating” value (giant foxtail; [5]) was 10. For the same compound, the “Giant foxtail plant response rating” value (giant foxtail; [7]) was 9, the “Giant foxtail plant response rating” value (giant foxtail; [6]) was 9 and the “Giant foxtail plant response rating” value (giant foxtail; [8]) was 10.
